Reference: US7429482B2, “Screening tools for discovery of novel anabolic agents” (United States of America as represented by the Department …, priority 2005, dated 2008)

Experiments:
GR = conditions: Danhaive and Rousseau 1986; cited from earlier work
[1] = Testosterone levels after replacement in rats; type: in vivo; conditions: rat, testosterone 0.7 mg/day continuous infusion
Procedure: (§1) Male Wistar rats weighing 200-250 gm (Taconic Farms, Germantown, N.Y.) were provided food and water ad libitum and were housed in a temperature and humidity controlled environment providing a 12:12 hour day-night cycle. For surgical procedures, animals were anesthetized with ketamine/xylazine. The left sciatic nerve was exposed by blunt dissection, and a 1 to 2 mm piece of this nerve was excised just below the level of the femoral head. A sham surgery was performed on the right hind limb in which the sciatic nerve was exposed but was not transected. Twenty eight days later, animals were anesthetized, and Alzet pumps were implanted subcutaneously on the back. […] Testosterone levels after replacement were approximately 15 nM, a high-normal range for rats of this age. Animals were sacrificed 3, 7 or 28 days after implantation of the miniosmotic pumps by inhalation of carbon dioxide. Gastrocnemius muscles were excised and weighed, then flash frozen on dry ice and stored at −80° C.

myostatin [2] = assay: Acute denervation: myostatin mRNA in EDL and soleus (qPCR); type: in vivo, rat
Procedure: (§2) Male Wistar rats weighing 250 gm (Taconic Farms, Germantown, N.Y.) were provided food and water ad libitum and were housed in a temperature and humidity controlled environment providing a 12:12 hour day-night cycle. For surgical procedures, animals were anesthetized with ketamine/xylazine. The left sciatic nerve was exposed by blunt dissection, and a 1 to 2 mm piece of this nerve was excised just below the level of the femoral head. A sham surgery was performed on the right hind limb in which the sciatic nerve was exposed but was not transected. Model 2002 Alzet pumps were implanted subcutaneously on the back. […] A pellet containing 15 mg of testosterone (Innovative Research of America, Sarasota, Fla.) administered as a continuous infusion (5 mg/wk), or a pellet containing placebo, was inserted into a subcutaneous pouch. […] Because testosterone is known to have anabolic actions (Ferrando et al., Am J Physiol Endocrinol Metab 282: E601-E607, 2002; Mauras et al., J Clin Endocrinol Metab 83: 1886-1892, 1998; Urban et al., Am J Physiol 269: E820-E826, 1995), reductions in levels of this hormone could affect muscle mass and confound interpretation of the results. Animals were euthanized 14 days later by inhalation of carbon dioxide. […]
(§3) Total RNA was extracted from skeletal muscle (20 mg) by homogenization in guanidine thiocyanate using a Polytron followed by extraction using phenol-chloroform (Chomczynski and Sacchi, Anal Biochem 162: 156-159, 1987). […] Total RNA was then eluted and quantified by absorbance at 260 nm. […] Levels of gene expression in the denervated muscle were expressed as fold induction relative to muscle from the sham-denervated leg of animals administered vehicle. […] Fold-induction was determined using the 2^−ΔΔCt method, using expression of 18S RNA as the normalization control. […]

IGF-1 = assay: Acute denervation: IGF-1 mRNA in EDL and soleus (qPCR); type: in vivo, rat; conditions: nandrolone 1.5 mg/kg/wk 14 days
Procedure: as §2, §3

[3] = Chronic denervation: gastrocnemius muscle weights; type: in vivo, rat
Procedure: as §1

MuRF1 = assay: Acute denervation: MuRF1 mRNA in EDL and soleus (qPCR); type: in vivo, rat; conditions: nandrolone 1.5 mg/kg/wk 14 days
Procedure: as §2, §3

myostatin [4] = assay: Chronic denervation: myostatin mRNA in gastrocnemius (qPCR); type: in vivo, rat
Procedure: as §1, with “Animals were sacrificed 3, 7 or 28 days after implantation of the miniosmotic pumps by inhalation of carbon dioxide. Gastrocnemius muscles were excised and weighed, then flash frozen on dry ice and stored at −80° C.” left out
as §3, with “extraction of total RNA with” for “extraction using”, “phenol-chloroform as described by” for “phenol-chloroform”, “was” for “was then”

junB = assay: Chronic denervation: junB mRNA in gastrocnemius (qPCR); type: in vivo, rat
Procedure: as §1, with “Animals were sacrificed 3, 7 or 28 days after implantation of the miniosmotic pumps by inhalation of carbon dioxide. Gastrocnemius muscles were excised and weighed, then flash frozen on dry ice and stored at −80° C.” left out
as §3, with “extraction of total RNA with” for “extraction using”, “phenol-chloroform as described by” for “phenol-chloroform”, “was” for “was then”

myogenin = assay: Acute denervation: myogenin mRNA in EDL and soleus (qPCR); type: in vivo, rat
Procedure: Male Wistar rats weighing 250 gm (Taconic Farms, Germantown, N.Y.) were provided food and water ad libitum and were housed in a temperature and humidity controlled environment providing a 12:12 hour day-night cycle. For surgical procedures, animals were anesthetized with ketamine/xylazine. The left sciatic nerve was exposed by blunt dissection, and a 1 to 2 mm piece of this nerve was excised just below the level of the femoral head. A sham surgery was performed on the right hind limb in which the sciatic nerve was exposed but was not transected. Model 2002 Alzet pumps were implanted subcutaneously on the back. […] A pellet containing 15 mg of testosterone (Innovative Research of America, Sarasota, Fla.) administered as a continuous infusion (5 mg/wk), or a pellet containing placebo, was inserted into a subcutaneous pouch. […] Because testosterone is known to have anabolic actions (Ferrando et al., Am J Physiol Endocrinol Metab 282: E601-E607, 2002; Mauras et al., J Clin Endocrinol Metab 83: 1886-1892, 1998; Urban et al., Am J Physiol 269: E820-E826, 1995), reductions in levels of this hormone could affect muscle mass and confound interpretation of the results. Animals were euthanized 14 days later by inhalation of carbon dioxide. Following removal of blood from the left ventricle for determination of serum testosterone concentration by radioimmunoassay (MP Biomedicals, Costa Mesa, Calif.), soleus, extensor digitorum longus (EDL), gastrocnemius and plantaris muscles were excised and weighed, then were flash frozen on dry ice and stored at −80° C.
Total RNA was extracted from skeletal muscle (20 mg) by homogenization in guanidine thiocyanate using a Polytron followed by extraction using phenol-chloroform (Chomczynski and Sacchi, Anal Biochem 162: 156-159, 1987). Total RNA was further enriched using RNAeasy minicolumns (Qiagen, Valencia, Calif.) and treated with RNAse-free DNAse (Qiagen). Total RNA was then eluted and quantified by absorbance at 260 nm. One μg of total RNA was used to prepare a cDNA library by reverse transcription (iScirpt, Biorad, Hercules, Calif.). Libraries were diluted 1:25 with water prior to real time PCR. Real time PCR was conducted using an ABI 7500 real time PCR thermal cycler, ABI 2×PCR reagent, and ABI Taqman real time PCR probes for genes of interest. Levels of gene expression in the denervated muscle were expressed as fold induction relative to muscle from the sham-denervated leg of animals administered vehicle. […] Fold-induction was determined using the 2^−ΔΔCt method, using expression of 18S RNA as the normalization control. Primers and probes used for 18S RNA, MuRF1 and myostatin were obtained through the assays by Design service of Applied Biosystems and had the sequences are shown in Table 2; probes were 5′ labeled with FAM and 3′ modified with a non-fluorescent quencher. All other primer-probe combinations used were those contained in ABI Assay on Demand kits.

GADD45 = assay: Acute denervation: GADD45 mRNA in EDL and soleus (qPCR); type: in vivo, rat; conditions: significant
Procedure: Male Wistar rats weighing 250 gm (Taconic Farms, Germantown, N.Y.) were provided food and water ad libitum and were housed in a temperature and humidity controlled environment providing a 12:12 hour day-night cycle. For surgical procedures, animals were anesthetized with ketamine/xylazine. The left sciatic nerve was exposed by blunt dissection, and a 1 to 2 mm piece of this nerve was excised just below the level of the femoral head. A sham surgery was performed on the right hind limb in which the sciatic nerve was exposed but was not transected. Model 2002 Alzet pumps were implanted subcutaneously on the back. […] A pellet containing 15 mg of testosterone (Innovative Research of America, Sarasota, Fla.) administered as a continuous infusion (5 mg/wk), or a pellet containing placebo, was inserted into a subcutaneous pouch. […]
as §3

C[C@]12CC[C@H]3[C@@H](CCC4=CC(=O)CC[C@@]43C)[C@@H]1CC[C@@H]2O [testosterone]
Kd (GR): ~200 nM
testosterone levels after replacement [1]: approximately 15 nM

C[C@]12CC[C@H]3[C@@H](CCC4=CC(=O)CC[C@@H]43)[C@@H]1CC[C@@H]2O [nandrolone]
myostatin expression (myostatin [2]; denervated EDL): appeared to reduce
myostatin expression (myostatin [2]; sham-denervated EDL): significantly reduced
myostatin expression (myostatin [2]; soleus): did not appreciably alter
IGF-1 expression (IGF-1; denervated EDL): significantly reduced
IGF-1 expression (IGF-1; denervated or sham-denervated soleus): did not significantly affect
IGF-1 expression (IGF-1; sham-denervated EDL): significantly reduced
weights of denervated muscles versus vehicle ([3]; after 3 days of nandrolone (31 days)): similar
increase in mass of muscles in the normal limb ([3]; nandrolone 0.75 mg/kg/wk plus testosterone from day 28, not significant): 2-5%
MuRF1 expression (MuRF1; denervated EDL): significantly reduced
MuRF1 expression (MuRF1; denervated soleus): significantly decreased
MuRF1 expression (MuRF1; sham-denervated soleus or EDL): did not significantly affect
myostatin expression (myostatin [4]; denervated muscle, 7 and 28 days administration): modest, though significant reduction
myostatin expression (myostatin [4]; sham-denervated muscle, not significant): tended to be decreased
junB expression (junB; denervated muscle, 3 to 28 days after starting infusion): tended to reduce
junB expression (junB; sham-denervated muscle): no effect
myogenin expression (myogenin; denervated EDL, not significant): tended to reduce
myogenin expression as % of that in denervated muscle from placebo animals (myogenin; denervated soleus): 70%
reduction of myogenin expression (myogenin; sham-denervated EDL, not significant): 50%
reduction of myogenin expression (myogenin; sham-denervated EDL, trend, not significant): 27%
reduction of myogenin expression (myogenin; sham-denervated soleus, did not reach significance): 50%
reduction of myogenin expression (myogenin; sham-denervated soleus, trend, not significant): 48%
reduction in GADD45 expression (GADD45; denervated EDL): 21%
decrease in GADD45 expression (GADD45; denervated soleus): 40%
